These compounds were tested on REH (assay: selective drug sensitivity score (sDSS, relative to normal bone marrow) (sDSS (score)); higher = more potent and effective on the cell line relative to normal bone marrow cells). Details: 72 h.
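Further: ALL cell lines in 384-well plates, five doses spanning 10,000-fold, each plate scaled between vehicle and 100 µmol/L benzalkonium chloride controls, sDSS an adapted area-under-curve metric.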

SMILES	selective drug sensitivity score
CCCCCOC(=O)Nc1nc(=O)n([C@@H]2O[C@H](C)[C@@H](O)[C@H]2O)cc1F [Capecitabine] (top concentration 10000 nM)	-0.06
Nc1nc(Cl)nc2c1ncn2[C@H]1C[C@H](O)[C@@H](CO)O1 [Cladribine] (top concentration 1000 nM)	-2.64
CCN(CC)CCOc1ccc(/C(=C(/Cl)c2ccccc2)c2ccccc2)cc1 [Clomifene] (top concentration 10000 nM)	0.72
CO[C@@H](C(=O)N1Cc2[nH]nc(NC(=O)c3ccc(N4CCN(C)CC4)cc3)c2C1)c1ccccc1 [Danusertib] (top concentration 10000 nM)	16.5
CC[C@@](C)(Nc1ccnc(-c2c[nH]c3ncccc23)n1)C(=O)NCC(F)(F)F [Decernotinib] (top concentration 10000 nM)	-3.94
CN1CCN(c2ccc3nc(-c4c(N)c5c(F)cccc5[nH]c4=O)[nH]c3c2)CC1 [Dovitinib] (top concentration 10000 nM)	-0.14
CC(C)(O)CNc1nc(Nc2ccnc(C(F)(F)F)c2)nc(-c2cccc(C(F)(F)F)n2)n1 [Enasidenib] (top concentration 10000 nM)	-0.8
CN1CCN(c2ccc(C(=O)Nc3n[nH]c4ccc(Cc5cc(F)cc(F)c5)cc34)c(NC3CCOCC3)c2)CC1 [Entrectinib] (top concentration 1000 nM)	-1.2
CNC(=O)c1ccc(N2C(=S)N(c3ccc(C#N)c(C(F)(F)F)c3)C(=O)C2(C)C)cc1F [Enzalutamide] (top concentration 10000 nM)	-0.82
Cn1cc(C2=C(c3cn(C4CCN(Cc5ccccn5)CC4)c4ccccc34)C(=O)NC2=O)c2ccccc21 [Enzastaurin] (top concentration 10000 nM)	3.66
NS(=O)(=O)NCCNc1nonc1/C(=N/O)Nc1ccc(F)c(Br)c1 [Epacadostat] (top concentration 10000 nM)	3.34
CCOc1ccccc1-n1c(C(C)N2CCN(C(=O)COc3ccc(Cl)cc3)CC2)nc2ccccc2c1=O (stereo not given) [Erastin] (top concentration 10000 nM)	7.04
COc1cc(OC)cc(N(CCNC(C)C)c2ccc3ncc(-c4cnn(C)c4)nc3c2)c1 [Erdafitinib] (top concentration 1000 nM)	0.44
CC(C)(C)NC(=O)[C@H]1CC[C@H]2[C@@H]3CC[C@H]4NC(=O)C=C[C@]4(C)[C@H]3CC[C@]12C [Finasteride] (top concentration 10000 nM)	-0.52
O=c1[nH]c(=O)n([C@H]2C[C@H](O)[C@@H](CO)O2)cc1F [Floxuridine] (top concentration 10000 nM)	25.8
CNc1nc(Nc2cn(C(C)(C)C#N)nc2C)ncc1C(F)(F)F [GNE-0877] (top concentration 1000 nM)	0.8
CCCc1cc(C)[nH]c(=O)c1CNC(=O)c1cc(-c2ccnc(N3CCN(C)CC3)c2)cc2c1cnn2C(C)C [GSK343] (top concentration 1000 nM)	0
O=C(O)c1ccc(O)c2ncccc12 [IOX-1] (top concentration 100000 nM)	2.54

Each compound was assayed on RCH-ACV in the same assay as above. Details: 72 h.

SMILES	selective drug sensitivity score
CCCCCOC(=O)Nc1nc(=O)n([C@@H]2O[C@H](C)[C@@H](O)[C@H]2O)cc1F [Capecitabine] (top concentration 10000 nM)	-0.06
Nc1nc(Cl)nc2c1ncn2[C@H]1C[C@H](O)[C@@H](CO)O1 [Cladribine] (top concentration 1000 nM)	5.76
CCN(CC)CCOc1ccc(/C(=C(/Cl)c2ccccc2)c2ccccc2)cc1 [Clomifene] (top concentration 10000 nM)	3.22
CO[C@@H](C(=O)N1Cc2[nH]nc(NC(=O)c3ccc(N4CCN(C)CC4)cc3)c2C1)c1ccccc1 [Danusertib] (top concentration 10000 nM)	17.9
CC[C@@](C)(Nc1ccnc(-c2c[nH]c3ncccc23)n1)C(=O)NCC(F)(F)F [Decernotinib] (top concentration 10000 nM)	-3.14
CN1CCN(c2ccc3nc(-c4c(N)c5c(F)cccc5[nH]c4=O)[nH]c3c2)CC1 [Dovitinib] (top concentration 10000 nM)	0.46
CC(C)(O)CNc1nc(Nc2ccnc(C(F)(F)F)c2)nc(-c2cccc(C(F)(F)F)n2)n1 [Enasidenib] (top concentration 10000 nM)	2.2
CN1CCN(c2ccc(C(=O)Nc3n[nH]c4ccc(Cc5cc(F)cc(F)c5)cc34)c(NC3CCOCC3)c2)CC1 [Entrectinib] (top concentration 1000 nM)	-1.2
CNC(=O)c1ccc(N2C(=S)N(c3ccc(C#N)c(C(F)(F)F)c3)C(=O)C2(C)C)cc1F [Enzalutamide] (top concentration 10000 nM)	-0.72
Cn1cc(C2=C(c3cn(C4CCN(Cc5ccccn5)CC4)c4ccccc34)C(=O)NC2=O)c2ccccc21 [Enzastaurin] (top concentration 10000 nM)	2.36
NS(=O)(=O)NCCNc1nonc1/C(=N/O)Nc1ccc(F)c(Br)c1 [Epacadostat] (top concentration 10000 nM)	-0.26
CCOc1ccccc1-n1c(C(C)N2CCN(C(=O)COc3ccc(Cl)cc3)CC2)nc2ccccc2c1=O (stereo not given) [Erastin] (top concentration 10000 nM)	17.6
COc1cc(OC)cc(N(CCNC(C)C)c2ccc3ncc(-c4cnn(C)c4)nc3c2)c1 [Erdafitinib] (top concentration 1000 nM)	2.04
CC(C)(C)NC(=O)[C@H]1CC[C@H]2[C@@H]3CC[C@H]4NC(=O)C=C[C@]4(C)[C@H]3CC[C@]12C [Finasteride] (top concentration 10000 nM)	-0.52
O=c1[nH]c(=O)n([C@H]2C[C@H](O)[C@@H](CO)O2)cc1F [Floxuridine] (top concentration 10000 nM)	39.1
CNc1nc(Nc2cn(C(C)(C)C#N)nc2C)ncc1C(F)(F)F [GNE-0877] (top concentration 1000 nM)	0
CCCc1cc(C)[nH]c(=O)c1CNC(=O)c1cc(-c2ccnc(N3CCN(C)CC3)c2)cc2c1cnn2C(C)C [GSK343] (top concentration 1000 nM)	0
O=C(O)c1ccc(O)c2ncccc12 [IOX-1] (top concentration 100000 nM)	3.74

Each compound was assayed on PF-382 in the same assay as above. Details: 72 h.

SMILES	selective drug sensitivity score
CCCCCOC(=O)Nc1nc(=O)n([C@@H]2O[C@H](C)[C@@H](O)[C@H]2O)cc1F [Capecitabine] (top concentration 10000 nM)	-0.06
Nc1nc(Cl)nc2c1ncn2[C@H]1C[C@H](O)[C@@H](CO)O1 [Cladribine] (top concentration 1000 nM)	-5.54
CCN(CC)CCOc1ccc(/C(=C(/Cl)c2ccccc2)c2ccccc2)cc1 [Clomifene] (top concentration 10000 nM)	0.72
CO[C@@H](C(=O)N1Cc2[nH]nc(NC(=O)c3ccc(N4CCN(C)CC4)cc3)c2C1)c1ccccc1 [Danusertib] (top concentration 10000 nM)	6.24
CC[C@@](C)(Nc1ccnc(-c2c[nH]c3ncccc23)n1)C(=O)NCC(F)(F)F [Decernotinib] (top concentration 10000 nM)	-3.94
CN1CCN(c2ccc3nc(-c4c(N)c5c(F)cccc5[nH]c4=O)[nH]c3c2)CC1 [Dovitinib] (top concentration 10000 nM)	-0.14
CC(C)(O)CNc1nc(Nc2ccnc(C(F)(F)F)c2)nc(-c2cccc(C(F)(F)F)n2)n1 [Enasidenib] (top concentration 10000 nM)	-0.1
CN1CCN(c2ccc(C(=O)Nc3n[nH]c4ccc(Cc5cc(F)cc(F)c5)cc34)c(NC3CCOCC3)c2)CC1 [Entrectinib] (top concentration 1000 nM)	-1.2
CNC(=O)c1ccc(N2C(=S)N(c3ccc(C#N)c(C(F)(F)F)c3)C(=O)C2(C)C)cc1F [Enzalutamide] (top concentration 10000 nM)	0.18

Reference: the supplement of paper PMC8967900
